Laboratory results reported in PMC11288311 (Cell chemical biology, 2022).

Columns and labels:
LRH-1 LBD Y516A or K520A = type: binding, human; settings: Y516A or K520A mutation
[1] = Aqueous solubility by LC-MS in PBS; type: physicochemical; settings: PBS pH 7.4, 25°C, 2 hours
mouse LRH-1 = mouse LRH-1 (Mus musculus, UniProt P45448); assay: Activation of mouse LRH-1 in vitro
hLRH1 IEC Rag2-/- mice = assay: T cell transfer; type: in vivo, mouse; settings: 20 mg/kg i.p., 16 days
hLRH-1 enteroids = assay: Gene expression in TNF-stimulated humanized LRH-1 mouse intestinal enteroids; type: cell-based; settings: 1 μM overnight, not observed in LRH-1-deficient enteroids
LRH-1 K520A = assay: Luciferase reporter assay with LRH-1 K520A mutant; type: cell-based, human; settings: K520A mutation, 30 μM, 24 hours
[2] = tested on: endogenous LRH-1 in Huh7 hepatocytes; assay: qRT-PCR of LRH-1 targets in Huh7 hepatocytes; type: cell-based, human; settings: Huh7, 24-hour treatment
[3] = tested on: human LRH-1 (hLRH-1) in the liver; assay: Liver gene expression

Sequence of mouse LRH-1 (P45448 whole entry): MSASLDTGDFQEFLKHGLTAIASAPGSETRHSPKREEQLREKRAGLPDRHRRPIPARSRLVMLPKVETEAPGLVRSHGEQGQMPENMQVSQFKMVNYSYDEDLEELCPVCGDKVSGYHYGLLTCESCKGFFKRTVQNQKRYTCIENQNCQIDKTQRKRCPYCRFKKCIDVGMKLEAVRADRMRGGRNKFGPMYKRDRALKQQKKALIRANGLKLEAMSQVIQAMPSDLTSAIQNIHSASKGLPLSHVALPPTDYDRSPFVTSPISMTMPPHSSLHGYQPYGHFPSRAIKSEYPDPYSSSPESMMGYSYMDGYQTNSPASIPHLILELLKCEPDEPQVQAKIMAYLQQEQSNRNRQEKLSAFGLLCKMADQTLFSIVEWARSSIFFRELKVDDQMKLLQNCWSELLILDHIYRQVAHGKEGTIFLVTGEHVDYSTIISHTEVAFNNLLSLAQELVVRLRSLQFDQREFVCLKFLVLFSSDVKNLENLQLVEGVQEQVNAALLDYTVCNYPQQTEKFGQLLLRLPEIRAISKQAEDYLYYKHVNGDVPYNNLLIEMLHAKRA

Row | Structure (SMILES) | Decrease in binding affinity, mutant versus WT LRH-1 (LRH-1 LBD Y516A or K520A) | Aqueous solubility limit [1] | Activation of mouse LRH-1 (mouse LRH-1) | Body weight at end of study relative to mean pre-treatment body weight (hLRH1 IEC Rag2-/- mice) | Colon histology scores (hLRH1 IEC Rag2-/- mice) | Expression of LRH-1 targets Cyp8b1, Cyp11a1, Cyp11b1 in colonic crypts (hLRH1 IEC Rag2-/- mice) | Expression of Cyp11a1 and Il-10 (hLRH-1 enteroids) | Reduction of activation versus WT LRH-1 (LRH-1 K520A) | Expression of LRH-1 targets SHP (NR0B2) and PLK3 [2] | Expression of de novo lipogenesis targets SREBF1, ACACB, FASN, SCD1 [2] | Liver expression of lipogenic genes (Fasn, Acacb, Scd1) ([3]; 0.1, 1 or 10 mg/kg, five i.p. injections over three days) | Liver expression of Srebf1 ([3]; not statistically significant, p = 0.09 versus vehicle)
1 | C=C(c1ccccc1)[C@@]12CC[C@@H](O)[C@@H]1CC(CCCCCC)=C2c1ccccc1 [RJW100] | insensitive or less sensitive | 2.9 µM | – | – | – | – | – | – | – | – | – | –
2 | C=C(c1ccccc1)[C@@]12CC[C@@H](O)[C@@H]1CC(CCCCCCCCCC(=O)O)=C2c1ccccc1 [Compound 10CA] | – | – | poor activators of mouse LRH-1 | ≤ 1% | markedly improved | strong upregulation | induces expression | around 60% | dose-dependently upregulates | downregulates | downregulation of lipogenic genes | trends lower
